The values that follow come from patent US7446102B2, “Antibacterial amide macrocycles IV” (priority 2004, dated 2008).

The structures appear in SMILES notation. Where a name gives a salt, the structure may show the parent alone.

This experiment has as its target S. aureus 133 translation. The experiment in a line: S. aureus in vitro transcription-translation assay (firefly luciferase, S30 extract). It is filed as biochemical. As to conditions: 50% inhibition of the translation of firefly luciferase. The text has this: In Vitro Transcription-Translation with S. aureus Extracts
Construction of an S. aureus Luciferase Reporter Plasmid
For the construction of a reporter plasmid which can be used in an in vitro transcription-translation assay from S. aureus the plasmid pBESTluc (Promega Corporation, USA) is used. The E. coli tac promoter present in this plasmid in front of the firefly luciferase is replaced by the capA1 promoter with appropriate Shine-Dalgarno sequence from S. aureus. The primers CAPFor 5′-[…] […] […]-3′ and CAPRev 5′-[…]-3′ are used for this. The primer CAPFor contains the capA1 promoter, the ribosome binding site and the 5′ region of the luciferase gene. After PCR using pBESTluc as template it is possible to isolate a PCR product which contains the firefly luciferase gene with the fused capA1 promoter. This is, after restriction with ClaI and HindIII, ligated into the vector pBESTluc which has likewise been digested with ClaI and HindIII. The resulting plasmid p1a is able to replicate in E. coli and be used as template in the S. aureus in vitro transcription-translation assay.
Preparation of S30 Extracts from S. aureus
Six liters of BHI medium are inoculated with a 250 ml overnight culture of an S. aureus strain and allowed to grow at 37° C. until the OD600 nm is 2-4. The cells are harvested by centrifugation and washed in 500 ml of cold buffer A (10 mM Tris acetate, pH 8.0, 14 mM magnesium acetate, 1 mM DTT, 1 M KCl). After renewed centrifugation, the cells are washed in 250 ml of cold buffer A with 50 mM KCl, and the resulting pellets are frozen at −20° C. for 60 min. The pellets are thawed on ice in 30 to 60 min and taken up in buffer B (10 mM Tris acetate, pH 8.0, 20 mM magnesium acetate, 1 mM DTT, 50 mM KCl) up to a total volume of 99 ml. 1.5 ml portions of lysostaphin (0.8 mg/ml) in buffer B are introduced into 3 precooled centrifuge cups and each is mixed with 33 ml of the cell suspension. The samples are incubated at 37° C., shaking occasionally, for 45 to 60 min, before 150 μl of a 0.5 M DTT solution are added. The lysed cells are centrifuged at 30 000×g and 4° C. for 30 min. The cell pellet is taken up in buffer B and then centrifuged again under the same conditions, and the collected supernatants are combined. The supernatants are centrifuged again under the same conditions, and 0.25 volumes of buffer C (670 mM Tris acetate, pH 8.0, 20 mM magnesium acetate, 7 mM Na3 phosphoenolpyruvate, 7 mM DTT, 5.5 mM ATP, 70 μM amino acids (complete from Promega), 75 μg of pyruvate kinase (Sigma, Germany))/ml are added to the upper ⅔ of the supernatant. The samples are incubated at 37° C. for 30 min. The supernatants are dialysed against 21 of dialysis buffer (10 mM Tris acetate, pH 8.0, 14 mM magnesium acetate, 1 mM DTT, 60 mM potassium acetate) in a dialysis tube with a 3500 Da cut-off with one buffer change at 4° C. overnight. The dialysate is concentrated to a protein concentration of about 10 mg/ml by covering the dialysis tube with cold PEG 8000 powder (Sigma, Germany) at 4° C. The S30 extracts can be stored in aliquots at −70° C.
Determination of the IC50 in the S. aureus In Vitro Transcription-Translation Assay
Inhibition of protein biosynthesis of the compounds can be shown in an in vitro transcription-translation assay. The assay is based on the cell-free transcription and translation of firefly luciferase using the reporter plasmid p1a as template and cell-free S30 extracts obtained from S. aureus. The activity of the resulting luciferase can be detected by luminescence measurement.
The amount of S30 extract or plasmid p1a respectively to be employed must be tested anew for each preparation in order to ensure an optimal concentration in the assay. 3 μl of the substance to be tested, dissolved in 5% DMSO, are introduced into an MTP. Then 10 μl of a suitably concentrated plasmid solution p1a are added. […]

`NC[C@H](O)C[C@@H]1NC(=O)[C@@H](N)Cc2cc(ccc2O)-c2ccc(O)c(c2)C[C@@H](C(=O)O)NC1=O` [Example 20A, 14(S)-Amino-11(S)-(3-amino-2(R)-hydroxypropyl)-5,17-dihydroxy-10,13-dioxo-9,12-diazatricyclo[14.3.1.1^2,6]henicosa-1(19),2,4,6(21),16(20),17-hexaene-8(S)-carboxylic acid dihydrochloride, reference compound]: half-maximal inhibition (IC50) required 1.5 µM.
